This passage reports TLR8 activation results from patent US20180289692A1, “TLR MODULATORS AND METHODS OF USE” (CELGENE CORPORATION, priority 2015, published 2018).

Oligonucleotides are written 5' to 3', each unit as a sugar letter and its base; * is a phosphorothioate linkage, no mark a phosphodiester; rarer units and linkages stand in square brackets, end groups in braces. Plain capitals give the bases only. d = 2'-deoxy (DNA)

The series concerns the target T1, TLR8 (Homo sapiens, UniProt Q9NR97).
T1 construct: host or cells: HEK Blue TLR8 reporter cells (engineered HEK293, NF-κB inducible SEAP)
T1 sequence (Q9NR97 27-1041): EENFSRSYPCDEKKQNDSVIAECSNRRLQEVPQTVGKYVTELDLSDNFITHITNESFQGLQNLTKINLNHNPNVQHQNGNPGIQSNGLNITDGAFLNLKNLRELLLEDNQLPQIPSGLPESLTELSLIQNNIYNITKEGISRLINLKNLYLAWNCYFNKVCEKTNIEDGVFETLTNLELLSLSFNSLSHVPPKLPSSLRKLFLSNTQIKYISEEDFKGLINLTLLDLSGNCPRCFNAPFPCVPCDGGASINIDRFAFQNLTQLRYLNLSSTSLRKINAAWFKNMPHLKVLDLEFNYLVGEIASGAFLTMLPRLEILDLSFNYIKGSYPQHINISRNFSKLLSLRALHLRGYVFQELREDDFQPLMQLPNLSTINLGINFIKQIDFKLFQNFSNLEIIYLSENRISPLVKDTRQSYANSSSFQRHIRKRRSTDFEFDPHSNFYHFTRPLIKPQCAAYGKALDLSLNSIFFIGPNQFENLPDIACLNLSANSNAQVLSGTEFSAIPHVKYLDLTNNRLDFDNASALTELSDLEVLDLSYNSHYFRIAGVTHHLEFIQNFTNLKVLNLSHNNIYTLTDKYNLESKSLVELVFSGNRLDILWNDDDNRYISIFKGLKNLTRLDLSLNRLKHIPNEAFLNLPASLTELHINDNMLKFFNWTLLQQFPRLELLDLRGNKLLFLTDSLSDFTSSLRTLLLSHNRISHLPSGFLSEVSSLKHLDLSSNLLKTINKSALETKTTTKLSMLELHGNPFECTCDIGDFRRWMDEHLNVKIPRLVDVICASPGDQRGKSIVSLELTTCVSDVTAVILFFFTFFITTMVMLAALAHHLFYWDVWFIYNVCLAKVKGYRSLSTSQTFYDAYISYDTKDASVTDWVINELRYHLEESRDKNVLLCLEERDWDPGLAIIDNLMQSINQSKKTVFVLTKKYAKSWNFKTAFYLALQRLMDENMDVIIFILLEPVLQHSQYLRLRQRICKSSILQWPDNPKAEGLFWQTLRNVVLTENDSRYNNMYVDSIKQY
The series can be described thus: TLR8 activation in HEK Blue TLR8 reporter cell line after lipo-transfection. The format is cell-based. The conditions noted are these: HEK Blue TLR8 reporter cells, Lipofectamine transfection, FIG. 24. On the procedure:
Briefly, the reporter cells were engineered HEK293 cells that express a TLR8 gene and are specially designed for monitoring activity of NF-kβ inducible SEAP (secreted embryonic alkaline phosphatase). Reporter cells were seeded at a density of around 60000/well in 96 wells plates for 72 hrs. Growth medium was removed and Lipofectamine™ (Life Technologies, Foster City, Calif.) 2000/oligonucleotide complex and agonist was added and incubated for 6 hrs. The complex was removed and Detection Medium was added for 16 hrs of incubation. Optical density of SEAP was measured by spectrophotometer at […]. […] See also, Table 7.

“ODN150: 5′-G*G*A*ACAGTTCGTCCAT*G*G*C-3′, PO except * = PS; antisense to p65 of NF-kB mRNA; tested clinically for ulcerative colitis (DNA dG*dG*dA*dAdCdAdGdTdTdCdGdTdCdCdAdT*dG*dG*dC)”: the TLR8 activation entry is “substantially induced”.
